{"source": "patent US20070293512A1", "about": "“Condensed Pyrimidine Deriviative and Xanthine Oxidase Inhibitor” (priority 2004, published 2007)", "key": {"[1]": {"target": "T1, Cow milk Xanthine Oxidase (Bos taurus, UniProt P80457)", "T1 construct": "Cow milk Xanthine Oxidase (Roche); purchased Roche; host or cells: cow milk (natural source)", "T1 sequence (P80457 whole entry)": "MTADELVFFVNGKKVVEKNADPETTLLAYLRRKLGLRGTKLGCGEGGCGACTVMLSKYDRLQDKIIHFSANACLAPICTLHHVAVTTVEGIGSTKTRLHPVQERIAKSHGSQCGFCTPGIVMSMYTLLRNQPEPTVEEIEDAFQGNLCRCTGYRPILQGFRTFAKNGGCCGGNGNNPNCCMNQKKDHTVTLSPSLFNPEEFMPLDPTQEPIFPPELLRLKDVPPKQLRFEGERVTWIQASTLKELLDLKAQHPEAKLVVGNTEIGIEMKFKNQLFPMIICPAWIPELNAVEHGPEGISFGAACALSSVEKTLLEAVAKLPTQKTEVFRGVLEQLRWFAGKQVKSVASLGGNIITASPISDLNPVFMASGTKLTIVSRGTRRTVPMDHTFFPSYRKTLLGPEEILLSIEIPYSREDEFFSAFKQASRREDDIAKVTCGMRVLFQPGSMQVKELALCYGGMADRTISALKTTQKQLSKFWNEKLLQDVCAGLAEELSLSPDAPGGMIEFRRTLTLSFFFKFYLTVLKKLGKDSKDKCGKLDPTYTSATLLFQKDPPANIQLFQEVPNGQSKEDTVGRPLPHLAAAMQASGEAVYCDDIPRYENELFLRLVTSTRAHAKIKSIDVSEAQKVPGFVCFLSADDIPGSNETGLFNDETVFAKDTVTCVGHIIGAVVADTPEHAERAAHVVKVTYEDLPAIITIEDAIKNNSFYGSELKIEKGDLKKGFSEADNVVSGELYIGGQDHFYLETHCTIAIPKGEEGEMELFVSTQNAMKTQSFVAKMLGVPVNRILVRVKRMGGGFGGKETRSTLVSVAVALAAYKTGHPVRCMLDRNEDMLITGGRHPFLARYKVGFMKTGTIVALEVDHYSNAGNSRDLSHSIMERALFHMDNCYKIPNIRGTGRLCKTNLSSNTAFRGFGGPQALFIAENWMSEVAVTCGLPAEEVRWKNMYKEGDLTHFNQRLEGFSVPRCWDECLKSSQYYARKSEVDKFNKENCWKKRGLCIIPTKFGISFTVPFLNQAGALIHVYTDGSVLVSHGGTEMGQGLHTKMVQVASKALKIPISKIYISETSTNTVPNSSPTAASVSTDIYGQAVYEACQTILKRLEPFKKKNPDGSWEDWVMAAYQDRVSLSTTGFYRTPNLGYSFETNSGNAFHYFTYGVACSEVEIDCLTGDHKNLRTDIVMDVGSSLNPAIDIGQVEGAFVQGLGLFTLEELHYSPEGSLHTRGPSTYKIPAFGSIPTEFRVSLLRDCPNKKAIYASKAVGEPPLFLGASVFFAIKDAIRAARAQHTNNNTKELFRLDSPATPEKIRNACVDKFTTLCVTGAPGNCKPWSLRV", "experiment": "Xanthine oxidase inhibition, in vitro (oxidation of xanthine, absorbance at 290 nm)", "type": "biochemical", "details": "xanthine 250 μM, 50 mM phosphate buffer pH 7.5, 30° C., 10 minutes", "procedure": "The xanthine oxidase inhibiting action (in vitro test) of the compound of the invention was confirmed by measuring inhibition of oxidation of xanthine by xanthine oxidase, as described in Example 50. As is clear from Tables 11 and 12, the compounds of the invention show excellent xanthine oxidase inhibiting action.\nPharmacological Experiment 1 (In Vitro Measuring Method)\n1. Preparation of Test Sample\nThe test compound was dissolved in dimethylsulfoxide and diluted with 50 mM phosphate buffer (pH 7.5), to give a solution of a predetermined concentration.\n125 μL of each of the solutions of the test compound having different concentrations was added to 1 mL of a solution of Xanthine (SIGMA, 250 μM) in the 50 mM phosphor buffer (pH 7.5). The mixture was then pre-incubated at 30° C. for 5 min. Subsequently, to the pre-incubated mixture was added 125 μL of Cow milk Xanthine Oxidase (Roche) diluted with the 50 mM phosphate buffer (pH 7.5) to 70 mU/mL, and the mixture was subjected to reaction at 30° C. for 10 minutes. Then, 1N hydrochloric acid, (200 μL) was added to the reaction mixture to terminate the reaction. Subsequently, absorbance at OD 290 nm was measured by means of a spectrophotometer (Shimadzu UV-160A)., to obtain a inhibition ratio. The measured inhibition ration was used to obtain […]\nThe inhibition ratio was calculated according to the following formula: Inhibition ratio (%)=[1−(B−C)/(A−C)]×100 • A: absorbance of control • B: absorbance measured on a sample containing test compound • C: absorbance of blank (Test Results)"}}, "note": "pIC50: −log10 of the molar value."}
{"smiles": "O=[N+]([O-])c1cc(-c2nc3c(O)ncnc3s2)ccc1Oc1ccccc1", "note": "[Example 7, 4-Hydroxy-2-(3-nitro-4-phenoxyphenyl)-thiazolo[5,4-d]pyrimidine]", "values": [{"measurement": "pIC50", "setting": "[1]", "result": 8.06}, {"measurement": "melting point", "result": "278 to 281 °C (dec.)"}]}
{"smiles": "O=[N+]([O-])c1cc(-c2nc3c(O)ncnc3s2)ccc1Oc1ccc(F)cc1", "note": "[Example 12, 2-[4-(4-Fluorophenoxy)-3-nitrophenyl]-4-hydroxythiazolo[5,4-d]pyrimidine]", "values": [{"measurement": "pIC50", "setting": "[1]", "result": 8.03}, {"measurement": "melting point", "result": "282 to 284 °C (dec.)"}]}
{"smiles": "O=[N+]([O-])c1cc(-c2nc3c(O)ncnc3o2)ccc1Sc1ccc(Cl)cc1", "note": "[Example 6, 2-[4-(4-Chlorophenylthio)-3-nitrophenyl]-4-hydroxyoxazolo[5,4-d]pyrimidine]", "values": [{"measurement": "pIC50", "setting": "[1]", "result": 7.52}, {"measurement": "melting point", "result": "> 250", "unit": "°C"}]}
